{"source": "patent US20020192253A1", "about": "“Peeling composition” (priority 1999, published 2002)", "system": "skin", "experiment": "Photodynamic peeling: ointment applied to facial skin, then 635 nm excimer dye laser irradiation", "settings": "for time at which peeling was completed after the operation: 635 nm", "key": {"[1]": {"settings": "Example 1: 10 g of 20% ointment, left half of face, 4 hours, 5 J/cm^2 for 30 minutes"}, "[2]": {"settings": "Example 2: 5 g of 20% ointment, right cheek, 12 hours, 5 J/cm^2 for 15 minutes"}}, "note": "Structures can show the parent of a compound that is named as a salt."}
{"smiles": "NCC(=O)CCC(=O)O", "note": "[5-ALA hydrochloride, 5-aminolevulinic acid]", "values": [{"measurement": "condition of treated part in follow-up survey", "setting": "Example 1: 6 months after the treatment", "value": "still remained in favorable conditions"}, {"measurement": "day from which edematous erythema gradually disappeared", "setting": "[1]", "value": 3, "unit": "days"}, {"measurement": "skin reaction at the affected part after irradiation", "setting": "[1]", "value": "edematous erythema was formed at the affected part"}, {"measurement": "time at which peeling was completed after the operation", "setting": "Example 1: person, 10 g of 20% by weight ointment on left half of face, 4 hours shaded, 5 J/cm^2 for 30 minutes", "value": 3, "unit": "weeks"}, {"measurement": "skin tension, wrinkles, pigmentation, acne spots compared with the untreated right part of the face", "setting": "Example 1: treated left versus right part of face", "value": "obviously relieved"}, {"measurement": "day from which edematous erythema gradually disappeared", "setting": "[2]", "value": 3, "unit": "days"}, {"measurement": "skin reaction at the affected part after irradiation", "setting": "[2]", "value": "edematous erythema was formed at the affected part"}, {"measurement": "condition of treated part in follow-up survey", "setting": "Example 2: 6 months after the treatment", "value": "still remained in favorable conditions"}, {"measurement": "time at which peeling was completed after the operation", "setting": "Example 2: person, 5 g of 20% by weight ointment on right cheek (6 cm×6 cm), 12 hours shaded, 5 J/cm^2 for 15 minutes", "value": 6, "unit": "days"}, {"measurement": "skin tension, wrinkles, pigmentation, acne spots compared with the corresponding part in the left cheek", "setting": "Example 2: treated right cheek versus left cheek", "value": "obviously relieved"}]}
